Results from patent US9060966B2, “Use of 2,5-dihydroxybenzene derivatives for the treatment of arthritis and pain” (priority 2006, dated 2015).

Experiments:
[1] = system: human retinal endothelial cells (HREC); test: Proliferation of human retinal endothelial cells (HREC, crystal violet); assay type: cell-based; details: 72 h
Method: (§1) 2A-5HBS was administered or not administered (control) after seeding the HREC in 24-well plates (7.5×10^3 per well) until they were fixed after 72 hours. The data are expressed as the mean±SEM of the percentage of the absorbance at 595 nm obtained in the control cultures, which is proportional to the number of cells stained with crystal violet. The data were obtained from 6 cultures for each treatment in two separate experiments. The white bar represents the value of the control cells, whereas the gray bars show the value in the presence of 2A-5HBS (500 and 1000 μM). * indicates p<0.05, *** p<0.001 with respect to the control by means of a single-factor analysis of variance (ANOVA) followed by a Student-Newman-Keuls post-analysis.
as §1, with “5A-2HBS” for “2A-5HBS”, “striped” for “gray”, “***” for “*”, “indicates” for “indicates p<0.05, ***”
2,5-DHCME was administered or not administered (control) after seeding the HREC in 24-well plates (7.5×10^3 per well) until they were fixed after 72 hours. The data are expressed as the mean±SEM of the percentage of the absorbance at 595 nm obtained in the control cultures, which is proportional to the number of cells stained with crystal violet. The data were obtained from 6 cultures for each treatment in two separate experiments.
Primary cultures of human retinal endothelial cells (HREC) were used. Cells were obtained from Cell Systems (Virginia, USA) and subcultured with CSC complete medium (Cell Systems). Cells at 2 to 5 passages were seeded in 24-well plates at 7,500 cells/well density and, once attached, the cells were treated o not treated (controls) with 2A-5HBS (500 and 1000 μM) or 5A-2HBS (500 and 1000 μM) and they were allowed to proliferate for 72 hours, with daily medium changes. After that, the proliferation of HREC was evaluated by staining the fixed cells with crystal violet. The number of cells is proportional to the amount of retained dye, which was spectrophotometrically determined by measuring absorbance at 595 nm after removing the dye from the cells. Data are expressed as the percentage of absorbance at 595 nm obtained in control conditions. Data were obtained from two different experiments performed in triplicate.
Primary cultures of human retinal endothelial cells (HREC) were used. Cells were obtained from Cell Systems (Virginia, USA) and subcultured with CSC complete medium (Cell Systems). […] After that, the proliferation of HREC was evaluated by staining the fixed cells with crystal violet. The number of cells is proportional to the amount of retained dye, which was spectrophotometrically determined by measuring absorbance at 595 nm after removing the dye from the cells. Data are expressed as the percentage of absorbance at 595 nm obtained in control conditions. […]

[2] = system: corneal neovascularization; test: Topical treatment of human corneal neovascularization; assay type: in vivo; details: 5% solution of potassium salt, 4 drops a day topical, 19 days, one patient
Description: Photographs showing the presence of corneal neovascularization in a patient before being treated (A) and after 19 days of topical application of a solution containing 5% of potassium 2,5-dihydroxybenzoate (B). The treatment consisted of daily topical application of 4 drops of such solution.
4 drops a day were topically applied in a patient that presented a corneal neovascularization process refractory to any type of previous treatment.

[3] = molecular target: T1, fibroblast growth factor-1 (FGF-1) (Homo sapiens, UniProt P05230); test: Co-crystallisation with FGF-1 (crystal diffraction of complexes); assay type: binding; details: for acetoxyl groups of the compound when bound to the protein: electron density contoured at 1σ; for binding site on FGF-1 in the crystal complex: reference: site of 2,5-dihydroxybenzene sulfonic acid, lysine 132
T1 sequence (P05230 whole entry, species assumed): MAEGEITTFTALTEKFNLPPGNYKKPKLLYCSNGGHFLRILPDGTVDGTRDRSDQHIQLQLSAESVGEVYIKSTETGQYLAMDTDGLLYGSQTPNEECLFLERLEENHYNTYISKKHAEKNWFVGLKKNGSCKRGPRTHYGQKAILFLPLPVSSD
Description: (§2) FIG. 24. 2-acetoxy-5-hydroxybenzenesulfonic acid co-crystallized with fibroblast growth factor-1. […] The compound occupies a place that is very close to that described occupied by 2,5-dihydroxybenzenesulfonic acid, the aromatic ring of which forms a cation-σ bond with the N^ε group of lysine 132, which is marked in panel A as reference. […] In panels A and B, the protein surface is colored according to its electrostatic potential (light grey: negative charge; dark grey: positive charge; white: lack of charge).
as §2, with “25. 5-acetoxy-2-hydroxybenzenesulfonic” for “24. 2-acetoxy-5-hydroxybenzenesulfonic”, “cation-π” for “cation-σ”
as §2, with “26. 2,5-diacetoxybenzenesulfonic” for “24. 2-acetoxy-5-hydroxybenzenesulfonic”, “cation-π” for “cation-σ”
Based on the crystal diffraction of the FGF-1:2-acetoxy-5-hydroxybenzene sulfonic acid, FGF-1:5-acetoxy-2-hydroxybenzene sulfonic acid and FGF-1:2,5-diacetoxybenzene sulfonic acid complexes, the structures of the complexes were calculated and represented. FIGS. 24, 25 and 26, which show the surface of the dyed protein according to its electrostatic potential (light grey: negative charge; dark grey: positive charge; white: lack of charge), show the manner in which 2-acetoxy-5-hydroxybenzene sulfonic acid, 5-acetoxy-2-hydroxybenzene sulfonic acid and 2,5-diacetoxybenzene sulfonic acid interact, respectively, with FGF-1.

rat C6 glioma cells = test: Proliferation of rat glioma C6 cells (crystal violet); assay type: cell-based; details: 500 μM, 48 h
Method: FIG. 23. […] 5A-2HBS and 2A-5HBS were administered or not (control) after seeding C6 cells in 24 well plates (10^4 per well) until they were fixed 48 hours later. Data are expressed as the mean±SEM of the percentage of absorbance at 595 nm obtained in control cultures, which is proportional to the number of cells stained with crystal violet. Data were obtained from 3 cultures for each treatment and 6 control cultures.
The cell line used was the C6 cell line and the experiment was carried out as described in examples 2 and 3. Once adhered, the cells were treated or not (controls) with (5A-2HBS) (500 μM) or (2A-5HBS) (500 μM) and they were allowed to proliferate for 48 h. After this time the glioma cell proliferation was evaluated by means of staining the fixed cells with crystal violet. The number of cells is proportional to the amount of retained dye, which was determined spectrophotometrically by measuring the absorbance at 595 nm once the dye was extracted from the cells.

[4] = molecular target: T1, fibroblast growth factor-1 (FGF-1); test: Inhibition of fibroblast mitogenesis induced by FGF-1 in Balb/c 3T3 fibroblasts; assay type: cell-based; parameters: host or cells: added to Balb/c 3T3 fibroblasts (mouse); details: quiescent Balb/c 3T3 cultures; potassium salts, except 2-acetoxy-5-hydroxybenzene sulfonate as calcium salt
Method: The evaluated compounds were used in the form of potassium salt, except in the first case in which calcium salt was used. The experiments were carried out as described in Fernandez-Tornero C et al. J Biol Chem, 2003.

Leishmania major = test: Experimental infection with Leishmania major in a mouse model (paw thickness); assay type: in vivo, mice; details: 200 mg/kg/day i.p. for 14 days from third week after infection, effect from the eighth week
Description: (§3) The vehicle group consisted of infected animals that received daily injections of saline (0.9% NaCl) during the same period as DHBS. Results are expressed as the mean±the standard deviation of the increases in size of the inoculated paw (right) compared to the non-inoculated paw (left) in mm obtained with a Vernier caliper each week from 0 to 10. ** indicates p<0.01 vs. the vehicle-treated group by a Student t-test. 6 animals were used for each group.
as §3, with “from” for “during”, “moment of the infection, while the control group consisted of non-infected animals.” for “same period as DHBS.”, “9. *” for “10. **”, “p<0.05” for “p<0.01”, “vehicle” for “vehicle-treated”, “7” for “6”
as §3, with “from” for “during”, “third week after the infection.” for “same period as DHBS.”, “9. *” for “10. **”, “p<0.05” for “p<0.01”, “vehicle” for “vehicle-treated”, “7” for “6”
This model is based in the massive inoculation of Leishmania promatigotes in the mouse paw pad. Under these conditions, the parasite induces a progressive inflammation correlated with the multiplication of parasites at the site of inoculation. BALB/c strain female mice that developed severe and uncontrolled injuries were used (Foote S J, Handman E. Brief Funct Genomic Proteomic, 2005). This model has been used in pharmacology to monitor the therapeutic capacity of new leishmanicide compounds and the preventive capacity of potential vaccines against leishmaniasis ((Nelson K G et al. Antimicrob Agents Chemother. 2006).
The animals were inoculated with 5×10^6 of L. major promastigotes (strain Hervás) in 50 μL of PBS into the plantar pad of the right back paw. As negative control of the infection, a group of mice inoculated with 50 μL of PBS was used. The sizes of the lesions were measured every 7 days until the animals were sacrificed (week 9) using a Vernier caliper. The thickness of the right back paw (infected) and the left back paw (uninfected) of all the animals was measured at the base of the fifth toe. The progression of the inflammation is represented as the difference in thickness between the infected and the non-infected paws. […]

Compound	acetoxyl groups of the compound when bound to the protein [3]	binding site on FGF-1 in the crystal complex [3]	rat glioma cell proliferation (rat C6 glioma cells)	FGF-1 induced mitogenesis [4]	other results
COC(=O)C=Cc1cc(O)ccc1O [2,5-DHCME, 2,5-dihydroxycinnamic acid methyl ester]					HREC proliferation ([1]; 50 μM): significant inhibition; HREC proliferation ([1]; 100 μM): significant inhibition
O=C([O-])c1cc(O)ccc1O.[K+] [2,5-dihydroxybenzoate, potassium 2,5-dihydroxybenzoate]					degree of corneal vascularization [2]: remarkable reduction in the degree of corneal vascularization; degree of corneal vascularization ([2]; listed as 2,5-dihydroxybenzoic acid): noticeable reduction in the degree of corneal vascularization
CC(=O)Oc1ccc(O)cc1S(=O)(=O)[O-].[K+] [2A-5HBS, potassium 2-acetoxy-5-hydroxybenzene sulfonate]	conserve the acetoxyl groups	a site that is very close to the one that has been described occupied by 2,5-dihydroxybenzene sulfonic acid	inhibition		HREC proliferation ([1]; 500 μM): significant inhibition; HREC proliferation ([1]; 1000 μM): significant inhibition
CC(=O)Oc1ccc(O)c(S(=O)(=O)[O-])c1.[K+] [5A-2HBS, potassium 5-acetoxy-2-hydroxybenzenesulfonate]	conserve the acetoxyl groups	a site that is very close to the one that has been described occupied by 2,5-dihydroxybenzene sulfonic acid	inhibition	Inhibition	
O=S(=O)([O-])c1cc(O)ccc1O.[K+] [potassium 2,5-dihydroxybenzenesulfonate]				Inhibition	increase of paw thickness / size of the lesion (infected vs non-infected paw) (Leishmania major): Reduction in the size of the lesion; increase of paw thickness / size of the lesion (infected vs non-infected paw) (Leishmania major; listed as potassium 2,5-dihydroxybenzene sulfonate): significant reduction in the increase of paw thickness
calcium 2-acetoxy-5-hydroxybenzenesulfonate				Inhibition	
